Measured values reported in patent US20050215490A1, “Polyene polyketides and methods of treating bacterial infections” (Ecopia BioSciences, Inc., priority 2003, published 2005).
Converted amounts (≈) assume the structure as drawn. Like-named read-outs stand apart in the source and are kept apart here.

How the values were obtained:
SRBC = assay: in vitro; type: cell-based; conditions: at a concentration of 128 μg/ml
Protocol: (§1) A. Toxicity: Acute toxicities were determined using CD-1 female mice (supplied by Charles River Laboratories, Wilmington, Mass.) having a bodyweight of 18-25 g, and about 6 weeks of age. Compounds 1 and 2 at doses ranging from 1 to 70 mg/kg (formulated in 20% propylene glycol/water for a total volume of 10 μL/g of weight) were administered intraperitoneal (i.p.) and intravenous (i.v.) to groups of 5 mice (5 mice per concentration, per mode of administration). Two groups of 3 mice were injected with vehicle only. Mice were observed immediately after injection, within 4 hours and once a day for the subsequent days. Acute toxicity studies of Compound 1 in mice indicated no observable effect and high dose tolerability: 70 mg/kg intraperitoneal and 50 mg/kg intravenous (an MTD of 250 mg/kg was also determined by oral administration). […] In vitro Haemolytic activity results are also shown in Table 7, along with the in vivo toxicity and efficacy of Compound 1.

[1] = system: Staphylococcus aureus NRRL B-313 (ATCC™ 6538P); assay: MIC at different pH; type: cell-based; conditions: S. aureus ATCC 6538P
Protocol: Antibacterial activitiy of Compounds.3, 4, 5, 6 and 7 are accomplished using the same method in a panel of bacterial strains and Vancomycin as positive control.
Antibacterial efficacy of Compounds 1, 2, 3, 4, 5 and 6 on bacterial strain Staphylococcus aureus NRRL B-313 (ATCC™ 6538P) was determined at different pH concentrations.

[2] = system: Bacillus megaterium (ATCC™ 14581); assay: MIC, broth microdilution (NCCLS M7-A5); type: cell-based; conditions: Priestia megaterium, ATCC14581; B. megaterium ATCC 14581; Mueller-Hinton; 35° C., 18 hours; read-out: MIC
Protocol: (§2) Antibacterial activity of Compounds 1 and 2 (Table 4) was measured by determining the minimal inhibitory concentration (MIC) necessary to obtain a complete inhibition of bacteria growth in eight indicator strains, namely Staphylococcus aureus (ATCC™ 6538P), Staphylococcus aureus MRS3 (ATCC™ 700699), Staphylococcus epidermidis (ATCC™ 12228), Bacillus subtilis (ATCC™ 23857), Bacillus megaterium (ATCC™ 14581), Enterococcus faecalis VRE-1 (ATCC™ 29212), Enterococcus faecalis VRE-2 (ATCC™ 51299) and Micrococcus luteus (ATCC™ 9341). Indicator strains preparation and MIC determination were performed according to the National Committee for Clinical Laboratory Standards (NCCLS) guideline M7-A5 Methods for Dilution Antimicrobial Susceptibility Tests for Bacteria That Grow Aerobically; Approved Standard-Fifth Edition. (NCCLS document M7-A5, ISBN 1-56238-394-9; NCCLS, 940 West Valley Road, Suite 1400, Wayne, Pa. 19087-1898 USA), the content of which is incorporated herein by reference.
(§3) Compounds 1 and 2 were prepared as 100× stock solution in DMSO, with concentrations ranging from 3.2 mg/ml to 0.00625 mg/ml (a two-fold dilution series over […]). An aliquot of each 100× stock solution was diluted 50-fold in test medium described below to give a set of ten (10) 2× solutions ranging from 64 to 0.125 μg/mL. 50 μl of each of the ten 2× solutions was aliquoted into the corresponding well of a 12-well row, with the final well reserved for medium alone control. Each test was made in duplicate.
(§4) Vancomycin (Sigma™) used as positive control compounds, was prepared as 2× stock solutions in sterile, double-distilled water (ddH2O) ranging from 64 μg/ml to […] (a two-fold dilution series over 10 points). An aliquot of 50 μl corresponding to each concentration (at 2×) was then transferred to 96-well microplates to obtain a series of eleven two-fold dilutions.
(§5) An isolated colony of each of the eight indicator strains was used to inoculate tubes containing 3 ml of test medium. Mueller-Hinton test medium was used for Staphylococcus aureus (ATCC™ 6538P), Staphylococcus aureus MRS3 (ATCC™ 700699), Staphylococcus epidermidis (ATCC™ 12228), Bacillus subtilis (ATCC™ 23857), Bacillus megaterium (ATCC™ 14581) and Micrococcus luteus (ATCC™ 9341) indicator strains, and BHI (Brain-Heart Infusion broth) test medium was used for Enterococcus faecalis VRE-1 (ATCC™ 29212) and Enterococcus faecalis VRE-2 (ATCC™ 51299) indicator strains. Cells were grown overnight at 28° C. with shaking. Inoculum density for each indicator strain was adjusted to OD600=0.1 in 5 ml 0.85% saline, then further diluted 1/100 in appropriate medium. 50 μl of the final dilution (in test medium) of each indicator strain was added to each well of a 12-well row. This brings the final dilution of the test article or control compound in solution to 1×. The final inoculum is approximately 5×10^5 CFU/ml.
(§6) The indicator strains were incubated with 11 concentrations of each of Compounds 1 and 2, Vancomycin (Sigma™) control compound and one media alone control. For MIC determination, assay plates were incubated at 35° C. for 18 hours.

[3] = system: Staphylococcus aureus (ATCC™ 6538P); assay: MIC, broth microdilution (NCCLS M7-A5); type: cell-based; conditions: read-out: MIC
Protocol: as §2, §3, §4, §5, §6

[4] = system: Bacillus subtilis (ATCC™ 23857); assay: MIC, broth microdilution (NCCLS M7-A5); type: cell-based; conditions: ATCC23857, B. subtilis ATCC 23857, Mueller-Hinton, 35° C., 18 hours, read-out: MIC
Protocol: as §2, §3, §4, §5, §6

[5] = system: Staphylococcus epidermidis (ATCC™ 12228); assay: MIC, broth microdilution (NCCLS M7-A5); type: cell-based; conditions: read-out: MIC
Protocol: as §2, §3, §4, §5, §6

in vitro = type: cell-based; conditions: sheep; concentration to achieve 50% hemolysis of SRBC; read-out: In vitro Hemolytic activity (EC50)
Protocol: as §1

in vivo = conditions: female, CD-1, mouse
Protocol: as §1

[6] = ATCC6538P, S. aureus ATCC 6538P, Mueller-Hinton, 35° C., 18 hours
[7] = ATCC12228, S. epidermidis ATCC 12228, Mueller-Hinton, 35° C., 18 hours

Row | Compound | Haemolytic activity (SRBC) | MIC ([1]; pH 5.0, read-out: MIC) [µg/mL] | MIC ([1]; pH 6.0, read-out: MIC) [µg/mL] | MIC ([1]; pH 7.0, read-out: MIC) [µg/mL] | MIC [2] [µg/mL] | MIC [3, 6] [µg/mL] | MIC ([3]; Table 6, S. aureus MSSA) [µg/mL] | MIC [4] [µg/mL] | MIC [5, 7] [µg/mL] | MIC ([5]; Table 6, S. epidermidis) [µg/mL] | EC50 (in vitro) [µg/mL] | MTD (in vivo; ip) [mg/kg] | MTD (in vivo; po) [mg/kg]
1 | C\C(=C/C=C/C=C/C=C/C=C/C(C)C(OC1OC(C(=O)O)C(O)C(O)C1O)/C(C)=C/C(C)CCC/C=C/C(C)C/C=C/CCCNC(=N)N)C(=O)NC1=C(O)CCC1=O (stereo not shown) [Compound 2, 6-{16-guanidino-1-[11-(2-hydroxy-5-oxocyclopent-1-enylcarbamoyl)-1-methyldodeca-2,4,6,8,10-pentaenyl]-2,4,10-trimethylhexadeca-2,8,12-trienyloxy}-3,4,5-trihydroxy-tetrahydro-pyran-2-carboxylic acid] | No Haemolytic activity | 0.0625 (≈ 0.0759 µM) | 0.125 (≈ 0.152 µM) | 1 (≈ 1.22 µM) | 1 (≈ 1.22 µM) | 1 (≈ 1.22 µM) | 1 (≈ 1.22 µM) | 2 (≈ 2.43 µM) | 1 (≈ 1.22 µM) | 1 (≈ 1.22 µM) |  |  | 
2 | CC(=CC=CC=CC=CC=CC(C)C(OC1OC(C(=O)O)C(O)C(O)C1O)C(C)=CC(C)CCCC=CC(C)CC=CCCCN(C)C(=N)N)C(=O)NC1=C(O)CCC1=O (stereo not shown) [Compound 1, 3,4,5-trihydroxy-6-[1-[11-(2-hydroxy-5-oxocyclopent-1-enylcarbamoyl)-1-methyldodeca-2,4,6,8,10-pentaenyl]-2,4,10-trimethyl-16-(N-methyl-guanidino)-hexadeca-2,8,12-trienyloxy]-tetrahydropyran-2-carboxylic acid] |  | 0.125 (≈ 0.149 µM) | 0.25 (≈ 0.299 µM) | 1 (≈ 1.19 µM) | 1 (≈ 1.19 µM) | 2 (≈ 2.39 µM) | 2 (≈ 2.39 µM) | 1 (≈ 1.19 µM) | 4 (≈ 4.78 µM) | 4 (≈ 4.78 µM) | > 128 | 70 | 250
